Test results taken from patent publication US6642392B1 (priority 1997, dated 2003).
Like-named read-outs stand apart in the source and are kept apart here.

Assays:
Assay type in all cases: in vivo
Pyricularia oryzae = conditions: for Test C disease control rating: rice blast; for Test C disease control rating (100 = 100% disease control, 0 = no disease control): rice seedlings sprayed to run-off, inoculated the following day, rating relative to controls, unmarked compounds (standard test rate)
[1] = tested on: Eiysiphe graminis f. sp. tritici; assay: Test A: wheat powdery mildew, preventive spray on wheat seedlings; conditions: for Test A disease control rating: wheat powdery mildew; for Test A disease control rating (100 = 100% disease control, 0 = no disease control): wheat seedlings sprayed to run-off, inoculated the following day, rating relative to controls, unmarked compounds (standard test rate)
Method in brief: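 Preventive test: seedlings inoculated with powdery mildew spores one day after run-off spraying of a suspension. Ratings after 7 days in a 20° C growth chamber express percent disease control versus controls.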

Phytophthora infestans = conditions: for Test D disease control rating: tomato late blight; for Test D disease control rating (100 = 100% disease control, 0 = no disease control): tomato seedlings sprayed to run-off, inoculated the following day, rating relative to controls, unmarked compounds (standard test rate)
Botrytis cinerea = assay: Test E: gray mold, preventive spray on cucumber seedlings; conditions: for Test E disease control rating: gray mold on cucumber; for Test E disease control rating (100 = 100% disease control, 0 = no disease control): cucumber seedlings sprayed to run-off, inoculated the following day, rating relative to controls, unmarked compounds (standard test rate)
Method in brief: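 Preventive spray on cucumber seedlings used a suspension (3% acetone, 250 ppm Trem 014), applied to run-off one day before inoculation with Botrytis cinerea spores. Plants were held 48 h at 20° C in saturated air, then 5 days at 20° C. Percent disease control was scored relative to untreated plants.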

Puccinia recondita = assay: Test B: wheat leaf rust, preventive spray on wheat seedlings; conditions: for Test B disease control rating: wheat leaf rust; for Test B disease control rating (100 = 100% disease control, 0 = no disease control): wheat seedlings sprayed to run-off, inoculated the following day, rating relative to controls, unmarked compounds (standard test rate)
Method in brief: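 Preventive test: P. recondita spores were applied one day after a run-off spray of compound suspension on wheat seedlings. Plants had 24 h at 20 °C in saturated air plus 6 days in a 20 °C growth chamber. Scoring is % disease control (100 = full) relative to controls.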

[2] = 100 = 100% disease control, 0 = no control, unmarked entries (standard test concentration)
[3] = 100 = 100% disease control, 0 = no control relative to controls, unmarked entries (standard test concentration)

Compound	Test C disease control rating (Pyricularia oryzae; [2])	Test A disease control rating [1, 3]	Test D disease control rating (Phytophthora infestans; [2])	Test E disease control rating (Botrytis cinerea; [2])	Test B disease control rating (Puccinia recondita; [2])	Test C disease control rating (100 = 100% disease control, 0 = no disease control) (Pyricularia oryzae)	Test A disease control rating (100 = 100% disease control, 0 = no disease control) [1]	Test D disease control rating (100 = 100% disease control, 0 = no disease control) (Phytophthora infestans)	Test E disease control rating (100 = 100% disease control, 0 = no disease control) (Botrytis cinerea)	Test B disease control rating (100 = 100% disease control, 0 = no disease control) (Puccinia recondita)	further results
CC(C)(C)C(C#N)C(=O)NCCCn1c(C#N)cc(Cl)c1Cl (racemic) [compound 55]	85%	0%	0%	0%	0%	–	–	–	–	–	–
CCC1(C(=O)NC(C)COc2cc(F)c(F)cc2F)C(C)C1(Cl)Cl (centres unmarked) [compound 236]	–	–	–	–	–	97%	77%	0%	0%	0%	–
CC(COc1ccccc1C(C)C)NC(=O)C(C#N)C(C)(C)C (mixture of isomers) [compound 22]	100%	0%	0%	0%	0%	–	–	–	–	–	–
CC(COc1ccccc1CC#N)NC(=O)C(C#N)C(C)(C)C (mixture of isomers) [compound 16]	97%	0%	48%	0%	0%	–	–	–	–	–	–
CC(COc1cc(F)cc(F)c1C#N)NC(=O)C(C#N)C(C)C(C)(C)C (mixture of isomers) [compound 69]	53%	0%	2%	0%	0%	–	–	–	–	–	–
CC(COc1cc(Cl)ccc1Cl)NC(=O)C(C#N)C(C)C(C)(C)C (mixture of isomers) [compound 62]	–	–	–	–	–	–	–	–	–	–	Test C disease control rating (Pyricularia oryzae; tested at 40 ppm): 52%; Test A disease control rating ([1]; tested at 40 ppm): 74%; Test D disease control rating (Phytophthora infestans; tested at 40 ppm): 0%; Test E disease control rating (Botrytis cinerea; tested at 40 ppm): 0%; Test B disease control rating (Puccinia recondita; tested at 40 ppm): 0%
CCC1(C(=O)NC(C)COc2ccc(Br)cc2)C(C)C1(Cl)Cl (mixture of isomers) [86b]	–	–	–	–	–	–	–	–	–	–	Test C disease control rating (Pyricularia oryzae; tested at 40 ppm): 0%; Test A disease control rating ([1]; tested at 40 ppm): 52%; Test D disease control rating (Phytophthora infestans; tested at 40 ppm): 28%; Test E disease control rating (Botrytis cinerea; tested at 40 ppm): 0%; Test B disease control rating (Puccinia recondita; tested at 40 ppm): 0%
C=CC(C)(C)C(C#N)C(=O)N[C@H](C)COc1cc(F)ccc1Cl (single isomer, unassigned) [192a]	100%	0%	0%	85%	0%	–	–	–	–	–	–
CC(C)(C)C(C#N)C(=O)NC/C=C/c1ccccc1F (racemic) [compound 178]	53%	0%	0%	58%	0%	–	–	–	–	–	–
CCC1(C(=O)NC(C)COc2c(Cl)cc(F)cc2Cl)C(C)C1(Cl)Cl (centres unmarked) [compound 251]	–	–	–	–	–	94%	0%	0%	0%	0%	–
CC(COc1ccccc1Cl)NC(=O)C(C#N)C(C)(C)C (mixture of isomers) [5b]	100%	0%	24%	0%	86%	–	–	–	–	–	–
C=CC(C)(C)C(C#N)C(=O)N[C@H](C)COc1cc(Cl)ccc1Cl (single isomer, unassigned) [215a]	–	–	–	–	–	99%	63%	45%	0%	0%	–
CC(COc1cccc(I)c1C#N)NC(=O)C(C#N)C(C)(C)C (mixture of isomers) [compound 45]	86%	0%	0%	0%	0%	–	–	–	–	–	–
C[C@H](COc1cc(F)ccc1F)NC(=O)C(C#N)C(C)(C)C=CF (single isomer, unassigned) [221b]	–	–	–	–	–	100%	62%	41%	0%	68%	–
CCC1(C(=O)NC(C)COc2cc(Cl)ccc2Cl)C(C)C1(Cl)Cl (centres unmarked) [compound 113]	–	–	–	–	–	–	–	–	–	–	Test C disease control rating (Pyricularia oryzae; tested at 40 ppm): 97%; Test A disease control rating ([1]; tested at 40 ppm): 0%; Test D disease control rating (Phytophthora infestans; tested at 40 ppm): 19%; Test E disease control rating (Botrytis cinerea; tested at 40 ppm): 0%; Test B disease control rating (Puccinia recondita; tested at 40 ppm): 0%
C=CCC(C#N)C(=O)NC(C)C(Oc1cc(F)ccc1C#N)c1ccccc1 (mixture of isomers) [compound 284]	–	–	–	–	–	99%	0%	0%	0%	0%	–
CCC1(C(=O)NC(C)COc2cc(I)ccc2C#N)C(C)C1(Cl)Cl (centres unmarked) [compound 247]	–	–	–	–	–	85%	53%	0%	0%	0%	–
CCC1(C(=O)NC(C)COc2cc(Cl)c(Cl)cc2Cl)C(C)C1(Cl)Cl (centres unmarked) [compound 242]	–	–	–	–	–	74%	0%	96%	0%	0%	–
CCC1(C(=O)NC(C)C=Cc2cc(F)ccc2F)C(C)C1(Cl)Cl (single isomer, unassigned) [267a]	–	–	–	–	–	97%	78%	0%	55%	0%	–
CCC1(C(=O)NC(C)COc2cccc(CF)c2)C(C)C1(Cl)Cl (mixture of isomers) [compound 102]	–	–	–	–	–	–	–	–	–	–	Test C disease control rating (Pyricularia oryzae; tested at 40 ppm): 0%; Test A disease control rating ([1]; tested at 40 ppm): 60%; Test D disease control rating (Phytophthora infestans; tested at 40 ppm): 0%; Test E disease control rating (Botrytis cinerea; tested at 40 ppm): 0%; Test B disease control rating (Puccinia recondita; tested at 40 ppm): 0%
Cc1ccc(Cl)c(OC[C@@H](C)NC(=O)C(C#N)C(C)(C)C)c1 (single isomer, unassigned) [15b]	97%	0%	45%	0%	0%	–	–	–	–	–	–
CC(COc1ccccc1OC(F)(F)C(F)F)NC(=O)C(C#N)C(C)(C)C (mixture of isomers) [compound 201]	53%	90%	46%	0%	0%	–	–	–	–	–	–
